{"source": "patent US11266662B2", "about": "“Ganaxolone for use in prophylaxis and treatment of postpartum depression” (Marinus Pharmaceuticals, Inc., priority 2018, dated 2022)", "key": {"[1]": {"system": "CYP3A4/5", "assay": "Ganaxolone levels in subjects taking strong CYP inducers (carbamazepine and phenytoin)", "details": "with strong CYP inducers (carbamazepine and phenytoin)"}, "[2]": {"assay": "Solubility of ganaxolone", "details": "for solubility: organic solvent or mixture"}, "[3]": {"system": "rats", "assay": "IV toxicity in rats, 14 days", "details": "continuous IV dosing for 14 days"}, "[4]": {"assay": "IV toxicity in rats, 14 days", "details": "rat, in vivo, iv"}, "[5]": {"assay": "Phase 2A study (Magnolia) in women with postpartum depression: ganaxolone plasma concentrations / pharmacokinetics", "details": "for GNX Concentration: individual subjects, listed as GNX; for concentration at 12 h / concentration at 24 h / concentration at 48 h / concentration at 24 hr / concentration at 48 hr / concentration at 12 hr: female, human, plasma, intravenous, Mean average GNX Concentration", "protocol": "Approximately 200 women with PPD 18 to 45 years of age are screened to randomize up to 100 subjects across up to 6 cohorts. Approximately 10-30 subjects are randomized into each cohort. Randomized subjects receive the investigational product (IP), ganaxolone or matching placebo in a 1:1 ratio. In Cohorts 1-5 the IP is administered intravenously over 60 hours. In Cohort 6 the dosing is initiated with a 6-hour intravenous (IV) infusion followed by oral dosing for 28 days plus 3-day taper.\nGanaxolone is infused at a rate of 4 mg/hr (16 ml/h of ganaxolone 0.25 mg/ml solution) for 48 hours and then, to minimize any risks for withdrawal or rebound of anxiety and depression symptoms, at a rate of 2 mg/hr for the next 12 hours. The infusion is stopped at 60 hours. Total of 9 subjects are dosed for this cohort.\nGanaxolone is infused at a rate of 8 mg/hr (16 ml/h of ganaxolone 0.5 mg/ml solution) for 48 hours and then at a rate of 4 mg/hr for the next 12 hours. This dose is approximately double the expected plasma exposure as compared to Cohort 1 at steady state (Cohort 2 expected plasma concentration ˜100-120 ng/mL). The infusion is stopped at 60 hours.\nTwelve mg bolus of ganaxolone is initially given over 2 minutes followed by ganaxolone infusion at a rate of 12 mg/hr (24 ml/h of ganaxolone 0.5 mg/ml solution) for 48 hours. The rate is then reduced to 6 mg/hr for the next 12 hours, which is done to minimize any risks for withdrawal or rebound of anxiety and depression symptoms. The infusion is stopped at 60 hours.\nIn this cohort dosing is initiated with ganaxolone infusion at a rate of 20 mg/hr (40 ml/h of ganaxolone 0.5 mg/ml solution or matching placebo) for 6 hours followed by ganaxolone 900 mg (four 225 mg capsules per dose) or matching placebo capsules given orally at dinner time for 28 days followed by a 3-day taper (three, two, and one 225 mg capsule(s) per day, respectively).\nThis initial infusion is targeted to provide a fast onset of antidepressant activity by delivery of rapid plasma exposures to ganaxolone. Then, at dinner time of Day 1 the subjects take their first oral dose of ganaxolone 900 mg (four 225 mg capsules) or matching placebo (4 capsules). […] In previous studies, ganaxolone has been given up to a daily dose of 2000 mg, and at single doses of 1000 mg.\nSix samples are collected for pharmacokinetic analysis in Cohorts 1-5 and 12 samples in Cohort 6. […] Seven samples are collected during the inpatient phase of Cohort 6 (including 6 samples on Day 1) followed by collection of 5 samples during the outpatient phase during the study visits for a total of 12 samples in Cohort 6."}}, "note": "Where “and” joins values, the source holds several entries; their conditions need not be identical. Equal values may be shown once."}
{"smiles": "CC(=O)[C@H]1CC[C@H]2[C@@H]3CC[C@H]4C[C@](C)(O)CC[C@]4(C)[C@H]3CC[C@]12C", "note": "[ganaxolone, 3α-hydroxy-3β-methyl-5α-pregnan-20-one]", "values": [{"measurement": "Lowering in overall ganaxolone levels and exposure", "setting": "[1]", "result": "~45", "unit": "%"}, {"measurement": "solubility", "setting": "[2]; 95% alcohol", "result": 13000, "unit": "µg/mL"}, {"measurement": "solubility", "setting": "[2]; polyethylene glycol", "result": 3100, "unit": "µg/mL"}, {"measurement": "solubility", "setting": "[2]; propylene glycol", "result": 3500, "unit": "µg/mL"}, {"measurement": "Concentration dissolved", "setting": "[2]; using water soluble beta cyclodextrins", "result": "> 1000", "unit": "µg/mL"}, {"measurement": "Solubility in water", "setting": "[2]; water", "result": "insoluble"}, {"measurement": "Clinical pathology parameters or histopathology", "setting": "[3]", "result": "no ganaxolone-related changes"}, {"measurement": "NOAEL at 14 days", "setting": "[4]; female", "result": 30, "unit": "mg/kg/day"}, {"measurement": "NOAEL at 14 days", "setting": "[4]; male", "result": 42, "unit": "mg/kg/day"}, {"measurement": "Targeted ganaxolone plasma concentration at steady state (Css)", "setting": "[5]; Cohort 1, infusion rate 4 mg/hr, estimated target", "result": 0.052, "unit": "µg/mL"}, {"measurement": "GNX Concentration", "setting": "[5]; Cohort 1: IV 4 mg/hr for 48 h then 2 mg/hr for 12 h, time 12 hr", "result": 61.6, "unit": "ng/mL"}, {"measurement": "GNX Concentration", "setting": "[5]; Cohort 1: IV 4 mg/hr for 48 h then 2 mg/hr for 12 h, time 24 hr", "result": 59, "unit": "ng/mL"}, {"measurement": "Expected plasma concentration at steady state", "setting": "[5]; Cohort 2, 8 mg/hr", "result": "100 to 120", "unit": "ng/mL"}, {"measurement": "GNX Concentration", "setting": "[5]; Cohort 2: IV 8 mg/hr for 48 h then 4 mg/hr for 12 h, time 12 hr", "result": "107 ng/mL (2×) and 70.8 ng/mL and 111 ng/mL and 150 ng/mL and 115 ng/mL and 63.3 ng/mL and 69.3 ng/mL and 116 ng/mL and 49.5 ng/mL and 146 ng/mL and 183 ng/mL and 140 ng/mL and 71.5 ng/mL and 77.6 ng/mL"}, {"measurement": "GNX Concentration", "setting": "[5]; Cohort 2: IV 8 mg/hr for 48 h then 4 mg/hr for 12 h, time 24 hr", "result": "125 ng/mL and 92 ng/mL and 140 ng/mL and 45.5 ng/mL and 75.7 ng/mL and 106 ng/mL and 96.5 ng/mL and 1590* ng/mL and 142 ng/mL and 80.6 ng/mL and 175 ng/mL and 174 ng/mL and 162 ng/mL and 89.3 ng/mL and 26100* ng/mL"}, {"measurement": "GNX Concentration", "setting": "[5]; Cohort 2: IV 8 mg/hr for 48 h then 4 mg/hr for 12 h, time 48 hr", "result": "120 ng/mL (2×) and 136 ng/mL and 102 ng/mL and 197 ng/mL and 92 ng/mL and 77.8 ng/mL and 73.9 ng/mL and 118 ng/mL and 73.1 ng/mL and 131 ng/mL and 298 ng/mL and 132 ng/mL and 93.6 ng/mL and 7390* ng/mL"}, {"measurement": "GNX Concentration", "setting": "[5]; Cohort 2: IV 8 mg/hr for 48 h then 4 mg/hr for 12 h, time 72 hr", "result": "27.1 ng/mL and 26.4 ng/mL and 30.1 ng/mL and 28.2 ng/mL and 11.9 ng/mL and 23.9 ng/mL and 23.1 ng/mL and 26.8 ng/mL and 25.6 ng/mL and 19.4 ng/mL and 46.2 ng/mL and 26.9 ng/mL and 21.5 ng/mL and 18.1 ng/mL and 27.5 ng/mL"}, {"measurement": "Expected peak plasma concentrations during initial 2-minute bolus", "setting": "[5]; Cohort 3, 12 mg bolus over 2 minutes", "result": "up to 300 ng/ml"}, {"measurement": "GNX Concentration", "setting": "[5]; Cohort 3: 12 mg bolus, IV 12 mg/hr for 48 h then 6 mg/hr for 12 h, time 12 hr", "result": "137 ng/mL and 100 ng/mL and 106 ng/mL and 118 ng/mL and 138 ng/mL and 230 ng/mL and 126 ng/mL and 204 ng/mL and 61.1 ng/mL"}, {"measurement": "GNX Concentration", "setting": "[5]; Cohort 3: 12 mg bolus, IV 12 mg/hr for 48 h then 6 mg/hr for 12 h, time 24 hr", "result": "164 ng/mL and 125 ng/mL and 148 ng/mL and 163 ng/mL and 165 ng/mL and 254 ng/mL and 144 ng/mL and 250 ng/mL and 56 ng/mL and 16 ng/mL"}, {"measurement": "GNX Concentration", "setting": "[5]; Cohort 3: 12 mg bolus, IV 12 mg/hr for 48 h then 6 mg/hr for 12 h, time 48 hr", "result": "207 ng/mL and 146 ng/mL and 212 ng/mL and 66.4 ng/mL and 211 ng/mL and 213 ng/mL and 4160* ng/mL and 209 ng/mL and 85 ng/mL"}, {"measurement": "GNX Concentration", "setting": "[5]; Cohort 3: 12 mg bolus, IV 12 mg/hr for 48 h then 6 mg/hr for 12 h, time 72 hr", "result": "49.3 ng/mL and 26.1 ng/mL and 30 ng/mL and 46.2 ng/mL and 44.6 ng/mL and 42.8 ng/mL and 30.2 ng/mL and 31.7 ng/mL and 17.5 ng/mL and 15.2 ng/mL"}, {"measurement": "concentration at 12 h", "setting": "[5]; 86 μg/kg/hr, calculated for dose 86 μg/kg/hr, time 12 hr", "result": 0.0814, "unit": "µg/mL"}, {"measurement": "concentration at 24 h", "setting": "[5]; 86 μg/kg/hr, calculated for dose 86 μg/kg/hr, time 24 hr", "result": 0.0912, "unit": "µg/mL"}, {"measurement": "concentration at 48 h", "setting": "[5]; 86 μg/kg/hr, calculated for dose 86 μg/kg/hr, time 48 hr", "result": 0.101, "unit": "µg/mL"}, {"measurement": "concentration at 12 h", "setting": "[5]; 150 μg/kg/hr, calculated for dose 150 μg/kg/hr, time 12 hr", "result": 0.142, "unit": "µg/mL"}, {"measurement": "concentration at 24 hr", "setting": "[5]; 150 μg/kg/hr, calculated for dose 150 μg/kg/hr, time 24 hr", "result": 0.159, "unit": "µg/mL"}, {"measurement": "concentration at 48 hr", "setting": "[5]; 150 μg/kg/hr, calculated for dose 150 μg/kg/hr, time 48 hr", "result": 0.175, "unit": "µg/mL"}, {"measurement": "concentration at 12 hr", "setting": "[5]; 160 μg/kg/hr, calculated for dose 160 μg/kg/hr, time 12 hr", "result": 0.151, "unit": "µg/mL"}, {"measurement": "concentration at 24 hr", "setting": "[5]; 160 μg/kg/hr, calculated for dose 160 μg/kg/hr, time 24 hr", "result": 0.17, "unit": "µg/mL"}, {"measurement": "concentration at 48 hr", "setting": "[5]; 160 μg/kg/hr, calculated for dose 160 μg/kg/hr, time 48 hr", "result": 0.187, "unit": "µg/mL"}, {"measurement": "concentration at 12 hr", "setting": "[5]; 170 μg/kg/hr, calculated for dose 170 μg/kg/hr, time 12 hr", "result": 0.161, "unit": "µg/mL"}, {"measurement": "concentration at 24 hr", "setting": "[5]; 170 μg/kg/hr, calculated for dose 170 μg/kg/hr, time 24 hr", "result": 0.18, "unit": "µg/mL"}, {"measurement": "concentration at 48 hr", "setting": "[5]; 170 μg/kg/hr, calculated for dose 170 μg/kg/hr, time 48 hr", "result": 0.199, "unit": "µg/mL"}, {"measurement": "concentration at 12 h", "setting": "[5]; 180 μg/kg/hr, calculated for dose 180 μg/kg/hr, time 12 hr", "result": 0.17, "unit": "µg/mL"}, {"measurement": "concentration at 24 h", "setting": "[5]; 180 μg/kg/hr, calculated for dose 180 μg/kg/hr, time 24 hr", "result": 0.191, "unit": "µg/mL"}, {"measurement": "concentration at 48 h", "setting": "[5]; 180 μg/kg/hr, calculated for dose 180 μg/kg/hr, time 48 hr", "result": 0.21, "unit": "µg/mL"}, {"measurement": "concentration at 12 h", "setting": "[5]; 190 μg/kg/hr, calculated for dose 190 μg/kg/hr, time 12 hr", "result": 0.18, "unit": "µg/mL"}, {"measurement": "concentration at 24 h", "setting": "[5]; 190 μg/kg/hr, calculated for dose 190 μg/kg/hr, time 24 hr", "result": 0.202, "unit": "µg/mL"}, {"measurement": "concentration at 48 h", "setting": "[5]; 190 μg/kg/hr, calculated for dose 190 μg/kg/hr, time 48 hr", "result": 0.222, "unit": "µg/mL"}, {"measurement": "concentration at 12 h", "setting": "[5]; 200 μg/kg/hr, calculated for dose 200 μg/kg/hr, time 12 hr", "result": 0.189, "unit": "µg/mL"}, {"measurement": "concentration at 24 h", "setting": "[5]; 200 μg/kg/hr, calculated for dose 200 μg/kg/hr, time 24 hr", "result": 0.212, "unit": "µg/mL"}, {"measurement": "concentration at 48 h", "setting": "[5]; 200 μg/kg/hr, calculated for dose 200 μg/kg/hr, time 48 hr", "result": 0.234, "unit": "µg/mL"}, {"measurement": "concentration at 12 h", "setting": "[5]; 210 μg/kg/hr, calculated for dose 210 μg/kg/hr, time 12 hr", "result": 0.199, "unit": "µg/mL"}, {"measurement": "concentration at 24 h", "setting": "[5]; 210 μg/kg/hr, calculated for dose 210 μg/kg/hr, time 24 hr", "result": 0.223, "unit": "µg/mL"}]}
